Experimental data as given in paper PMC11200219 (JACS Au, 2024).

Legend:
[1] = target: T1, bovine pancreatic DNase I (Bos taurus, UniProt P00639); settings: cited from earlier work
[2] = target: T1, bovine pancreatic DNase I; assay: DNase I assay; format: biochemical; settings: in the absence of Mn007
[3] = stated in the introduction without reference; cited from earlier work

T1 sequence (P00639 23-282): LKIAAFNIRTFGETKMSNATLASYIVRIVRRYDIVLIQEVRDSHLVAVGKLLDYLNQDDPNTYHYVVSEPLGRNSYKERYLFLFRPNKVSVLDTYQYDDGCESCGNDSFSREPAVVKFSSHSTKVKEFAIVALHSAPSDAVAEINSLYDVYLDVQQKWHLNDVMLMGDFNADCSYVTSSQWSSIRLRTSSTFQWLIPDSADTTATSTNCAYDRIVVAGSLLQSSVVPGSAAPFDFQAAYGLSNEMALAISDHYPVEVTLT

| Molecule | Inhibition of bovine pancreatic DNase I (reported) [1] | Effect on activity of DNase I [2] | Cytotoxicity [3] |
| --- | --- | --- | --- |
| O=C(O)CN(CCN(CC(=O)O)CC(=O)O)CC(=O)O [EDTA] | reported to inhibit |  |  |
| CC(O)COC[C@H]1O[C@@H]2O[C@H]3[C@H](O)[C@@H](O)[C@@H](O[C@H]4[C@H](O)[C@@H](O)[C@@H](O[C@H]5[C@H](O)[C@@H](O)[C@@H](O[C@H]6[C@H](O)[C@@H](O)[C@@H](O[C@H]7[C@H](O)[C@@H](O)[C@@H](O[C@H]8[C@H](O)[C@@H](O)[C@@H](O[C@H]1[C@H](O)[C@H]2O)O[C@@H]8COCC(C)O)O[C@@H]7COCC(C)O)O[C@@H]6COCC(C)O)O[C@@H]5COCC(C)O)O[C@@H]4COCC(C)O)O[C@@H]3COCC(C)O (stereo partly drawn) [HyβCD, 2-Hydroxypropyl-β-cyclodextrin] |  | did not affect the activity of DNase I |  |
| CN(C)c1ccc(C(=C2C=CC(=[N+](C)C)C=C2)c2ccc(N(C)C)cc2)cc1 [crystal violet] | reported to inhibit |  | show cytotoxicity |
| actin | reported to inhibit |  |  |
